Laboratory results from patent US10104891B2 (priority 2014, dated 2018).

Key:
Assay type in all cases: in vivo
Phytophthora infestans = test: whole plant or invertebrate; conditions: tomato late blight; control value vs untreated section
[1] = tested on: Pseudoperonospora cubensis; test: Test 2: control effect against cucumber downy mildew; conditions: control value vs untreated section
Method: (§1) A 10% wettable powder created according to the Pharmaceutical Formulation Example 1 was diluted with a Tween20 solution prepared to a concentration of 1/5000, then the compound of formula [1] was prepared to a concentration of 4 ppm. Further, the compound of formula [1] in Test 4 was adjusted to a concentration of 1,000 ppm.
<Test 2 Test of Control Effect Against Cucumber Downy Mildew>
(§2) Test suspension was applied to cucumber at the 2 leaf stage (species: Sagami hanjiro) in an amount of 20 ml per seedling. One day after application, zoospore suspension of Pseudoperonospora cubensis adjusted to a concentration of 1.0×10^4 units/ml was misted/inoculated, and the seedlings were incubated in a moist chamber adjusted to 22° C. for 16 hr. Then, the onset of the disease was induced in the chamber, and the lesion area rate on the leaves 5 days after inoculation was investigated to compute the control value using the formula below. control value={1−onset area rate of the leaves that were applied the test agent/onset area rate of untreated leaves}×100 Computational formula of the control value: […]

Plasmopara viticola = test: Test 3: control effect against grape downy mildew; conditions: control value vs untreated section
Method: as §1
<Test 3 Test of Control Effect Against Grape Downy Mildew>
as §2, with “grape seedling” for “cucumber at the 2 leaf stage”, “Neomuscat)” for “Sagami hanjiro)”, “Plasmopara viticola” for “Pseudoperonospora cubensis”

SMILES	control value (Test 1) (Phytophthora infestans)	control value (Test 2) [1]	control value (Test 3) (Plasmopara viticola)
CC(C)S(=O)(=O)Oc1cccc2c1COC(c1csc(C3CCN(C(=O)Cn4nc(C(F)F)cc4C(F)F)CC3)n1)OC2 (stereo not drawn) [Compound 1-53]	100	100	100
CCCCS(=O)(=O)Oc1cccc2c1COC(c1csc(C3CCN(C(=O)Cn4nc(C(F)F)cc4C(F)F)CC3)n1)OC2 (stereo not drawn) [Compound 1-54]	100	100	100
O=C(Cn1nc(C(F)F)cc1C(F)F)N1CCC(c2nc(C3OCc4c(F)c(F)c(F)c(F)c4CO3)cs2)CC1 [Compound 1-55]	100	100	100
Cc1cc(C(F)(F)F)nn1CC(=O)N1CCC(c2nc(C3OCc4cccc(-c5ccccc5)c4CO3)cs2)CC1 (stereo not drawn) [Compound 1-56]	90	100	100
O=C(Cn1nc(C(F)F)cc1C(F)F)N1CCC(c2nc(C3OCc4cccc(Cl)c4CO3)cs2)CC1 (stereo not drawn) [Compound 1-58]	100	100	100
CCCCCCCCS(=O)(=O)Oc1cccc2c1COC(c1csc(C3CCN(C(=O)Cn4nc(C(F)F)cc4C(F)F)CC3)n1)OC2 (stereo not drawn) [Compound 1-59]	100	100	100
O=C(Cn1nc(C(F)F)cc1C(F)F)N1CCC(c2nc(C3OCc4ccc(C(F)(F)F)cc4CO3)cs2)CC1 (stereo not drawn) [Compound 1-60]	100	100	100
O=C(Cn1nc(C(F)F)cc1C(F)F)N1CCC(c2nc(C3OCc4cc5c(cc4CO3)CCC5)cs2)CC1 [Compound 1-61, 4-[4-(1,5,7,8,9-pentahydro-3H-2,4-indenodioxepin-3-yl)-2-thiazolyl]-1-[2-[3,5-bis(difluoromethyl)-1H-pyrazole-1-yl]acetyl]piperidine]	100	100	100
CON=Cc1cccc2c1COC(c1csc(C3CCN(C(=O)Cn4nc(C(F)(F)F)cc4C)CC3)n1)OC2 (stereo not drawn) [Compound 1-63]	100	100	100
Cc1cc(OS(C)(=O)=O)c2c(c1C)COC(c1csc(C3CCN(C(=O)Cn4nc(C(F)(F)F)cc4C)CC3)n1)OC2 (stereo not drawn) [Compound 1-64]	100	100	100
Cc1cc(C(F)(F)F)nn1CC(=O)N1CCC(c2nc(C3OCc4c(Cl)ccc(OS(C)(=O)=O)c4CO3)cs2)CC1 (stereo not drawn) [Compound 1-65]	100	100	100
Cc1cc(C(F)(F)F)nn1CC(=O)N1CCC(c2nc(C3OCc4c(Br)ccc(OS(C)(=O)=O)c4CO3)cs2)CC1 (stereo not drawn) [Compound 1-66]	100	100	100
CC(C)S(=O)(=O)Oc1cccc2c1COC(c1csc(C3CCN(C(=O)Cn4nc(C(F)(F)F)cc4C(F)(F)F)CC3)n1)OC2 (stereo not drawn) [Compound 1-67]	100	100	100
CCCCS(=O)(=O)Oc1cccc2c1COC(c1csc(C3CCN(C(=O)Cn4nc(C(F)(F)F)cc4C(F)(F)F)CC3)n1)OC2 (stereo not drawn) [Compound 1-68]	100	100	100
Cc1cc(C(F)(F)F)nn1CC(=O)N1CCC(c2nc(C3OCc4cccc(C=NN(C)C)c4CO3)cs2)CC1 (stereo not drawn) [Compound 1-71]	100	100	100
O=C(Cn1nc(C(F)F)cc1C(F)F)N1CCC(c2nc(C3OCc4cccc(-c5ccccc5)c4CO3)cs2)CC1 (stereo not drawn) [Compound 1-73]	90	100	100
COc1ccc([N+](=O)[O-])c2c1COC(c1csc(C3CCN(C(=O)Cn4nc(C(F)F)cc4C(F)F)CC3)n1)OC2 (stereo not drawn) [Compound 1-74]	100	100	100
O=C(Cn1nc(C(F)F)cc1C(F)F)N1CCC(c2nc(C3OCc4ccccc4CO3)cs2)CC1 [Compound 1-76]	100	100	100
O=C(Cn1nc(C(F)F)cc1C(F)F)N1CCC(c2nc(C3OCc4cc5ccccc5cc4CO3)cs2)CC1 [Compound 1-77]	100	100	100

SMILES	control value (Test 1) (Phytophthora infestans)	control value (Test 2) [1]	control value (Test 3) (Plasmopara viticola)
O=C(Cn1nc(C(F)F)cc1C(F)F)N1CCC(c2nc(C3OCc4ccc(F)cc4CO3)cs2)CC1 (stereo not drawn) [Compound 1-80]	100	100	100
O=C(Cn1nc(C(F)F)cc1C(F)F)N1CCC(c2nc(C3OCc4ccc(C(F)(F)F)cc4CO3)cs2)CC1 (stereo not drawn) [Compound 1-81]	100	100	100
COc1ccc(Br)c2c1COC(c1csc(C3CCN(C(=O)Cn4nc(C(F)(F)F)cc4C(F)(F)F)CC3)n1)OC2 (stereo not drawn) [Compound 1-82]	100	100	100
COc1ccc([N+](=O)[O-])c2c1COC(c1csc(C3CCN(C(=O)Cn4nc(C(F)(F)F)cc4C(F)(F)F)CC3)n1)OC2 (stereo not drawn) [Compound 1-83]	100	100	100
O=C(Cn1nc(C(F)(F)F)cc1C(F)(F)F)N1CCC(c2nc(C3OCc4ccccc4CO3)cs2)CC1 [Compound 1-85]	100	100	100
COc1ccc(OC(F)(F)F)c2c1COC(c1csc(C3CCN(C(=O)Cn4nc(C(F)(F)F)cc4C)CC3)n1)OC2 (stereo not drawn) [Compound 1-86]	100	100	100
CS(=O)(=O)Oc1ccc(F)c2c1COC(c1csc(C3CCN(C(=O)Cn4nc(C(F)(F)F)cc4C(F)(F)F)CC3)n1)OC2 (stereo not drawn) [Compound 1-87]	100	100	100
CC1OC(c2csc(C3CCN(C(=O)Cn4nc(C(F)(F)F)cc4C(F)(F)F)CC3)n2)OCc2ccccc21 (stereo not drawn) [Compound 1-88]	100	100	100
O=C(Cn1nc(C(F)(F)F)cc1C(F)(F)F)N1CCC(c2nc(C3OCc4cc5ccccc5cc4CO3)cs2)CC1 [Compound 1-89]	80	100	100
CC(C)(C)c1ccc2c(c1)COC(c1csc(C3CCN(C(=O)Cn4nc(C(F)(F)F)cc4C(F)(F)F)CC3)n1)OC2 (stereo not drawn) [Compound 1-92]	100	90	90
O=C(Cn1nc(C(F)(F)F)cc1C(F)(F)F)N1CCC(c2nc(C3OCc4cccc(Cl)c4CO3)cs2)CC1 (stereo not drawn) [Compound 1-93]	100	100	100
Cc1cc(C(F)(F)F)nn1CC(=O)N1CCC(c2nc(C3OCc4cccc(OC(F)F)c4CO3)cs2)CC1 (stereo not drawn) [Compound 1-94]	100	100	100
Cc1cc(C(F)(F)F)nn1CC(=O)N1CCC(c2nc(C3OCc4ccc(Br)cc4CO3)cs2)CC1 (stereo not drawn) [Compound 1-98]	100	100	100
O=C(Cn1nc(C(F)F)cc1C(F)F)N1CCC(c2nc(C3OCc4ccc(Br)cc4CO3)cs2)CC1 (stereo not drawn) [Compound 1-99]	100	100	100
Cc1cc(C(F)(F)F)nn1CC(=O)N1CCC(c2nc(C3OCc4c(I)ccc(OS(C)(=O)=O)c4CO3)cs2)CC1 (stereo not drawn) [Compound 1-101]	100	100	100
Cc1cc(C(F)(F)F)nn1CC(=O)N1CCC(c2nc(C3OCc4c(Cl)ccc(OS(C)(=O)=O)c4CO3)cs2)CC1 (stereo not drawn) [Compound 1-102]	100	100	100
Cc1cc(C(F)(F)F)nn1CC(=O)N1CCC(c2nc(C3OCc4c(OS(C)(=O)=O)ccc(OS(C)(=O)=O)c4CO3)cs2)CC1 [Compound 1-103]	100	100	100
Cc1cc(C(F)(F)F)nn1CC(=O)N1CCC(c2nc(C3OCc4cccc(C#N)c4CO3)cs2)CC1 (stereo not drawn) [Compound 1-104]	100	100	100
